In patent EP2660245A1, “PHYSIOLOGICALLY ACTIVE BIS-DIALKYLAMIDES OF PHOSPHORYL-SUBSTITUTED 1,4-DICARBOXYLIC ACIDS AND METHOD FOR PRODUCING SAME” (Federalnoe Gosudarstvennoe Bydzhetnoe Uchrezhdenie Nauki …, priority 2010, dated 2012):

Columns and labels:
[1] = system: rat cortical synaptosomes; assay: glutamate-induced 45Ca2+ uptake into rat cortical synaptosomes (P2-fraction); assay type: cell-based; conditions: for ^45Ca^2+ uptake (% vs. control) / activity at 100 µM: 5 min; for ^45Ca^2+ uptake (% vs. control): 100 µM; for IC50 / activity at 100 µM: Rattus norvegicus, glutamate-stimulated; for IC50: concentration at which 50% inhibition of calcium uptake takes place, four different concentrations; for activity at 100 µM: compound at 100 µM, synaptosomes of newborn Wistar rats, 5 minutes at 37°C, control = 100%, read-out: ^45Ca^2+ uptake (% vs. control)
Excerpt: Neuroprotective action of the synthesized compounds was studied in P2-fraction of the rat brain cortex synaptosomes as an in vitro convenient model for evaluation of the ability of various compounds to influence calcium uptake into the nerve endings. In the present invention, the applicant used the method of detecting the uptake of ^45Ca^2+ into rat cortical synaptosomes when stimulated with glutamic acid.
Synaptosomes were obtained from the cerebral cortex of newborn Wistar rats (9-10 days) according to Hayosh's standard procedure [Hajos F.// Brain Res., 1975, Vol.93, No 3, pp. 485-489]. The brain was homogenized (glass-teflon) in 10 volumes of 0.32 M chilled sucrose (900 rpm). The homogenate was centrifuged for 10 minutes at 1500 g. The resulting supernatant was centrifuged for 20 minutes at 10000 g. To accumulate the radioactive label, the P2-synaptosomal fraction was suspended in incubation buffer A (132 mM NaCl, 5 mM KCl, 5 mM HEPES, 10 mM glucose, pH 7.4 (protein concentration of 1.5-2 mg/ml)). The final concentration of Ca^2+ was 1.25 mM (1.4 µCi/ml). […] glutamate was used to stimulate the uptake of ^45Ca^2+ in synaptosomes. After 5 minutes of the incubation with glutamate at 37°C, the uptake of ^45Ca^2+ was stopped by filtration through GF/B filters (Whatman, England), washing three times with cold buffer B (145 mM KCl, 10 mM Tris, 5.4 mM Trilon B, pH 7.4) [L.N. Petrova, S.O. Bachurin // Bull. Exp. Biol. Med., 2006., Vol. 142, No 7, pp.51-54]. The samples were analyzed by liquid scintillation beta analyzer (Russia). All tests were performed in three parallel replications in 2-3 independent experiments. The amount of ^45Ca^2+ uptaced into synaptosomes was determined by the difference in the content of the label in the glutamate-induced uptake into synaptosomes and uptake into synaptosomes without agonist, and expressed as percentages of the control (control = 100%).
Specific uptake of ^45Ca^2+ was calculated according to the following formula: K(43/21) = [(Ca4-Ca3)/(Ca2-Ca1)]⋅100%, [formula] wherein Ca1 is uptake of ^45Ca^2+ in the control (without glutamate and a test compound), Ca2 is uptake of ^45Ca^2+ in the presence of glutamate, Ca3 is uptake of ^45Ca^2+ in the presence of a test compound (without glutamate), Ca4 is uptake of ^45Ca^2+ in the presence of glutamate and a test compound. Statistical analysis was performed according to Student's test.
Testing of the compounds was performed at a concentration of 100 µM. Compounds 1-9 which have an inhibitory effect on the ^45Ca^2+ uptake into rat cortical synaptosomes were examined in detail at four different concentrations to determine the IC50 value (concentration of a compound at which 50% inhibition of calcium uptake takes place).

[2] = acute toxicity (LD50) according to the standard method; conditions: in vivo

**Q.** With `CCCCN(CCCC)C(=O)CC(C(=O)N(CCCC)CCCC)P(=O)(c1ccccc1)c1ccccc1` (centres unmarked) [Compound 1, N^1,N^1,N^4,N^4-tetrabutyldiamide of 2-(diphenylphosphinoyl)succinic acid] as the compound, how does the “^45Ca^2+ uptake (% vs. control)” value [1] read?
**A.** 0%

**Q.** What about the IC50 [1] of the same compound?
**A.** 14.1 µM

**Q.** And the LD50 [2]?
**A.** > 100 mg/kg

**Q.** Which “^45Ca^2+ uptake (% vs. control)” value [1] does the source give for `CCCCN(CCCC)C(=O)CC(C(=O)N(CCCC)CCCC)P(=O)(c1ccccc1C)c1ccccc1C` (centres unmarked) [Compound 2] here?
**A.** 6.6±3.3%

**Q.** And the IC50 [1]?
**A.** 9.3 µM

**Q.** And the LD50 [2]?
**A.** > 100 mg/kg

**Q.** With `CCCCN(CCCC)C(=O)CC(C(=O)N(CCCC)CCCC)P(=O)(c1cc(C)ccc1C)c1cc(C)ccc1C` (centres unmarked) [Compound 3, N^1,N^1,N^4,N^4-tetrabutyldiamide of 2-[bis(2,5-dimethylphenyl)-phosphinoyl]succinic acid] as the compound, how does the activity at 100 µM [1] read?
**A.** 7.7 ± 6.4%

**Q.** And the IC50 [1]?
**A.** 18.6 µM

**Q.** And the LD50 [2]?
**A.** > 100 mg/kg

**Q.** Which results are given for `CCCCN(CCCC)C(=O)CC(C(=O)N(CCCC)CCCC)P(=O)(c1ccc(N(C)C)cc1)c1ccc(N(C)C)cc1` (centres unmarked) [Compound 4, N^1,N^1,N^4,N^4-tetrabutyldiamide of 2-[bis(4-dimethylaminophenyl)-phosphinoyl]succinic acid]?
**A.** activity at 100 µM [1]: 0%; IC50 [1]: 7.9 µM; LD50 [2]: > 100 mg/kg

**Q.** Which results are given for `CCCCN(CCCC)C(=O)CC(C(=O)N(CCCC)CCCC)P(=O)(c1ccc(Cl)cc1)c1ccc(Cl)cc1` (centres unmarked) [Compound 5, N^1,N^1,N^4,N^4-tetrabutyldiamide of 2-[bis(4-chlorophenyl)-phosphinoyl]succinic acid]?
**A.** activity at 100 µM [1]: 11.7 ± 7%; IC50 [1]: 4.8 µM; LD50 [2]: > 100 mg/kg

**Q.** Which activity at 100 µM [1] does the source give for `CCCCN(CCCC)C(=O)CC(C(=O)N(CCCC)CCCC)P(=O)(c1ccc(OC)cc1)c1ccc(OC)cc1` (centres unmarked) [Compound 6, N^1,N^1,N^4,N^4-tetrabutyldiamide of 2-[bis(4-methoxyphenyl)-phosphinoyl]succinic acid] here?
**A.** 7.2 ± 1.3%

**Q.** What about the IC50 [1] of the same compound?
**A.** 17 µM

**Q.** And the LD50 [2]?
**A.** > 100 mg/kg

**Q.** What does the source list for `CCCCN(CCCC)C(=O)CC(C(=O)N(CCCC)CCCC)P(=O)(CCCC)CCCC` (centres unmarked) [Compound 7, N^1,N^1,N^4,N^4-tetrabutyldiamide of 2-(di-n-butylphosphinoyl)succinic acid]?
**A.** activity at 100 µM [1]: 0%; IC50 [1]: 44.7 µM; LD50 [2]: > 100 mg/kg

**Q.** With `CCCCN(CCCC)C(=O)CC(CP(=O)(c1ccc(OC)cc1)c1ccc(OC)cc1)C(=O)N(CCCC)CCCC` (centres unmarked) [Compound 8, N^1,N^1,N^4,N^4-tetrabutyldiamide of 2-[bis(4-methoxyphenyl)-phosphinoylmethyl]succinic acid] as the compound, how does the “^45Ca^2+ uptake (% vs. control)” value [1] read?
**A.** 0%

**Q.** What about the IC50 [1] of the same compound?
**A.** 15.5 µM

**Q.** What about the LD50 [2] of the same compound?
**A.** > 100 mg/kg

**Q.** For `CCCCN(CCCC)C(=O)CC(CP(=O)(c1cc(C)ccc1C)c1cc(C)ccc1C)C(=O)N(CCCC)CCCC` (centres unmarked) [Compound 9, N^1,N^1,N^4,N^4-tetrabutyldiamide of 2-[bis(2,5-dimethylphenyl)-phosphinoylmethyl]succinic acid], which activity at 100 µM [1] is on record?
**A.** 4.9 ± 4.9%

**Q.** What about the IC50 [1] of the same compound?
**A.** 5.1 µM

**Q.** What about the LD50 [2] of the same compound?
**A.** > 100 mg/kg

**Q.** Which results are given for `CCN(CC)C(=O)CC(CP(=O)(c1ccccc1)c1ccccc1)C(=O)N(CC)CC` (centres unmarked) [Compound 10, N^1,N^1,N^4,N^4-tetraethyldiamide of 2-(diphenylphosphinoylmetyl)succinic acid]?
**A.** activity at 100 µM [1]: 63.8 ± 12%; LD50 [2]: > 100 mg/kg

**Q.** Which activity at 100 µM [1] does the source give for `CN(C)c1ccc(P(=O)(c2ccc(N(C)C)cc2)C(CC(=O)O)C(=O)O)cc1` (centres unmarked) [Compound 11, 2-[bis-(4-Dimethylaminophenyl)-phosphinoyl]succinic acid, reference compound] here?
**A.** 117 ± 3.9%

**Q.** Which activity at 100 µM [1] does the source give for `Cc1ccc(C)c(P(=O)(c2cc(C)ccc2C)C(CC(=O)O)C(=O)O)c1` (centres unmarked) [Compound 12, 2-[bis-(2,5-Dimethylphenyl)-phosphinoyl]succinic acid, reference compound] here?
**A.** 97.9 ± 11.4%

**Q.** For `CCP(=O)(CC)C(CC(=O)O)C(=O)O` (centres unmarked) [Compound 13, 2-(Diethylphosphinoyl)succinic acid, reference compound], which activity at 100 µM [1] is on record?
**A.** 120 ± 17.3%

**Q.** For `CCCCN(CCCC)C(=O)CP(=O)(c1ccccc1)c1ccccc1` [Compound 16, N,N-Dibutylamide of 2-(diphenylphosphinoyl)acetic acid, reference compound], which activity at 100 µM [1] is on record?
**A.** 96.2 ± 2.9%

**Q.** Which activity at 100 µM [1] does the source give for `CCN(CC)C(=O)CP(=O)(c1ccccc1)c1ccccc1` [Compound 17, N,N-Diethylamide of 2-(diphenylphosphinoyl)acetic acid, reference compound] here?
**A.** 95.4%

**Q.** For `CCN(CC)CC(C(=O)N(CC)CC)P(=O)(c1ccccc1)c1ccccc1` (centres unmarked) [Compound 18, N,N-Diethylamide of 2-(diphenylphosphinoyl)-3-(diethylamino)propionic acid, reference compound], which activity at 100 µM [1] is on record?
**A.** 97.4%
